One test has as its system H. armigera moths. Put plainly: two-choice olfactometer, moths entering the test chamber. It is filed as in vivo, Helicoverpa armigera. As to conditions: for attractiveness in the olfactometer: blend complexity studies, FIG. 8; for optimum concentration in the olfactometer: formulated in Sirene base, FIG. 6. The source says: The design of our olfactometer (FIG. 1) has been described by Gregg et al. (1998) and is similar to that of Beerwinkle et al. (1996). The olfactometer is a two-choice system in which moths choose between two airstreams. One carries either a bouquet (about 200 g) of freshly cut plant stems with their bases in a flask of water, or plant volatiles formulated and presented as described below (the test chamber). The other carries clean air (the control chamber). Each run normally uses 50 moths, and runs are normally replicated three times for each sex and each attractant. Thus, olfactometer data points are usually each based on the responses of 150 moths. Moths are laboratory-reared, unmated and aged 1-4 (usually 2-3) days. We use two criteria for attractiveness, the test % (percentage of the total 150 moths which enter the test chamber), and success rate (number entering the test chamber relative to those entering the control chamber). The former is our primary criterion, and is the one presented here. Data are analysed using Zar's procedure for multiple comparison of proportions. With N=150, the minimum significant difference between two percentages using-this procedure is about 8%.
For testing single chemicals in the olfactometer early in the project, we dissolve the synthetic chemical in canola oil at a concentration of 10%. 200 μl of this is absorbed into a cotton dental wick which is placed in the test airstream of the olfactometer. These lures are changed every 2 h during olfactometer runs. Later tests of single chemicals to determine the effects of varying concentration are done using Sirene formulations, as discussed below.
For testing chemical blends in the olfactometer and in field trapping experiments, we are formulating in Sirene, a mixture of anti-oxidants and UV protectants which was developed by Novartis for attract-and-kill of several moth species using pheromones, and for which IPM Technologies Ltd have worldwide marketing and development rights. Chemicals are mixed into Sirene in the barrel of a syringe using a slow (4 rpm) broad-bladed propeller, which stirs the highly viscous material for 3 h. Formulations are then stored at 40 C in the sealed syringe for periods of up to 2 weeks. Sirene formulations are tested in the olfactometer by placing about 100 mg on a horizontal square (1×1 cm) of plastic (Corflute®), which is then placed on a pin in the test airstream of the olfactometer. For field testing, the plastic square carrying the formulation is held horizontally under the lid of the AgriSense trap, in the same position that a pheromone lure would be, using a screw.

The subject of the next test is moths. Kind of test: laboratory feeding studies with ingestible formulations. Format: in vivo. As to conditions: 1% toxicant in ingestible formulations. The procedure:
To determine whether moths will feed on the ingestible formulations, and whether they die as a result, we place a single moth in a 1 litre plastic container which has 50 μl of the formulation as a single droplet in a beer bottle cap, on the bottom of the container. In some experiments laboratory-reared moths are used in a constant 25° C. reverse-cycle system. In others natural cycle laboratory moths are used in containers placed outdoors. Moths are observed at regular intervals and dead ones removed for dissection. At the end of the scotophase all surviving moths are removed and after a further hour are dissected.
In these studies small droplets (50-100 μl) were placed in a 1 litre container with the moths, so they spent the night in close proximity (within 10 cm) of the droplet.

In a further test the test system is Lab reared female moths. Kind of test: field wind tunnel trials. As to conditions: trial 8, Yanco, 0.5% methomyl. It is filed as in vivo. The procedure: These are used to observe behavioural responses of moths around lures, and to record kill rates of different blends and formulations, in semi-natural conditions. Clear polythene is stretched around a series of steel hoops 1.2 m in diameter which are suspended from a horizontal pipe Flywire is placed over each end. The wind tunnels are hung just above ground level and oriented parallel to the prevailing wind. Lures (3 bottle tops containing 100-200 μl of the attractant under test) are placed on a plastic dinner plate in the upwind end and 20-50 moths are released into the downwind end about 1 h before sunset. Lab reared female moths produced under natural photoperiod are used. Behavioural responses are observed using night vision glasses. In the morning both live and dead moths are collected and dissected to determine from the presence of green dye whether they have fed on the lure.

In the next test the test system is Helicoverpa spp. Kind of test: field trapping trials with AgriSense traps. Format: in vivo. As to conditions: for Peak catch % of phero / Whole experiment Lure N: Downs. The text has this: For field tests of the attractiveness of different blends we use AgriSense pheromone traps of the canister type (Gregg and Wilson 1991). Traps are usually cleared three times weekly, and the catch sorted. Moths are sexed and the females dissected to determine mated status. We normally test 5 formulations at a time, replicated 4 times, so there are 4 rows of 5 traps, each row containing one replicate of each formulation. Traps are spaced 50 m apart and are rotated, within a row, between catch intervals. Experiments are analysed as Latin squares. Field trials at Cecil Plains were conducted in soybeans, cotton, chickpea, wheat, fallow land and sunflower, and at Kununurra and China, in cotton.
These trials have been done at different times, and in different areas, different crops and different weather conditions. In some cases the conditions have been less than optimal. Examples include the Twynam 1, 2 and 3 trials in the Ord River, where night temperatures were often too low for moth activity, and the last two Wamara trials in 2000 where moth numbers in the district were extremely low. Because of these differences it is not possible to directly compare the numbers of moths caught between trials. We have therefore expressed the results as a percentage of the pheromone traps run in the same experiments. This percentage has been calculated on the catch interval with the highest volatile catches. We do this because the residual life of some volatiles is short and some formulations probably lose attractiveness during the course of the trials, whereas the pheromone release rate remains relatively constant. PBE1 was also included in almost all of these trials, as a standard plant volatile blend. The unweighted average catch of PBE1, across all trials, was 5.8% of the pheromone catch. Though PBE1 and some other volatile formulations occasionally caught up to 15-33% of the corresponding pheromone catch, when this occurred the overall numbers of moths were low, so the results are statistically unreliable.

[1] abbreviates: single chemicals in Sirene formulations.
[2] abbreviates: single chemicals, 10% in canola oil, females, FIG. 5.
Setting [3] is: Wamara3 Soybean, 20 Feb-12 Mar 99.

Results on eleven molecules are retold here after patent US20050042316A1, “Attractants for moths” (priority 2001, published 2005).

SMILES strings stand for the structures.

Turning to `OCCc1ccccc1` [2-phenylethanol], the test % in the test with H. armigera moths (2% concentration in Sirene) came to 26.4%; in the test with H. armigera moths (in canola oil), 29%. Besides, the “attractiveness in the olfactometer” value with H. armigera moths is “significantly attractive”. Also, the “attraction in the olfactometer (statistical significance)” value (from here on “attraction … (statistical significance)”) was “confirmed” with H. armigera moths (setting [1]) and “statistically significant levels of attraction” in the test with H. armigera moths (setting [2]).
Consider `CC1=CCC2C(C1)C2(C)C` (stereo not shown) [Blend 3-carene, 3-carene], for which the “attraction … (statistical significance)” value in the test with H. armigera moths (setting [2]) is “statistically significant levels of attraction”.
As to `CC/C=C\CCOC(C)=O` [Z-3-hexenyl acetate], in the test with H. armigera moths (setting [2]), the “attraction … (statistical significance)” value was “statistically significant levels of attraction”.
In the case of `CC/C=C\CCOC(=O)c1ccccc1O` [Z-3-hexenyl salicylate], the test % in the test with H. armigera moths (2% concentration in Sirene) is recorded as 26.7%; in the test on H. armigera moths (in canola oil) it was 33.8%. In addition, in the test with H. armigera moths, the “attractiveness in the olfactometer” value is “significantly attractive on its own”. In addition, the “attraction … (statistical significance)” value is recorded as “confirmed” in the test with H. armigera moths (setting [1]) and “statistically significant levels of attraction” in the test on H. armigera moths (setting [2]).
For `OCc1ccccc1` [benzyl alcohol], in the test on H. armigera moths, the “optimum concentration in the olfactometer” value (“optimum concentration” for short) is given as “about 1%”. In addition, the “attraction … (statistical significance)” value in the test on H. armigera moths (setting [1]) was “confirmed”; with H. armigera moths (setting [2]), “statistically significant levels of attraction”.
As to `CNC(=O)Oc1cccc2ccccc12` [carbaryl], in the test on moths, the “% killed, summary of trials” value is 69-94%.
For `CC(C)=CCC/C(C)=C/CO` [geraniol], in the test on H. armigera moths (setting [2]), the “attraction … (statistical significance)” value is on record as “statistically significant levels of attraction”.
For `C=C(C)[C@H]1CC=C(C)CC1` [limonene], in the test on H. armigera moths, the “attractiveness in the olfactometer” value is recorded as “statistically significant”. Moreover, the “attraction … (statistical significance)” value in the test with H. armigera moths (setting [2]) was “statistically significant levels of attraction”.
Consider `CNC(=O)ON=C(C)SC` [methomyl], for which the “% killed, summary of trials” value in the test on moths is on record as “killed all moths”.
As for `C=CCc1ccc(OC)c(OC)c1` [methyl eugenol], in the test with H. armigera moths, the “optimum concentration” value is listed as “about 2%”.
`O=CCc1ccccc1` [phenylacetaldehyde]: the “% killed” value with Lab reared female moths (attractant at 2%) is recorded as 33.3 b %; in the test on Lab reared female moths (attractant at 8%), 25.6 b %. The N killed in the test with Lab reared female moths (attractant at 2%) worked out at 14; in the test on Lab reared female moths (attractant at 8%) it was 11. Moreover, the “attractiveness in the olfactometer” value in the test with H. armigera moths is given as “significantly attractive”. In addition, the “optimum concentration” value in the test with H. armigera moths was “about 1%”. For the same molecule, the “attraction … (statistical significance)” value was “confirmed” with H. armigera moths (setting [1]) and “statistically significant levels of attraction” with H. armigera moths (setting [2]). Also, the “Peak catch % of phero” value amounted to 0.4% in the test with Helicoverpa spp. (Wamara1Soybean, 1-30 Jan 99); 1.1% in the test on Helicoverpa spp. (Wamara2 Soybean, 13-19 Feb 99); 3.1% in the test on Helicoverpa spp. (setting [3]). In addition, the “Whole experiment Lure N” value with Helicoverpa spp. (Wamara1Soybean, 1-30 Jan 99) is given as 10; in the test on Helicoverpa spp. (Wamara2 Soybean, 13-19 Feb 99), 5; with Helicoverpa spp. (setting [3]) it was 8. Besides, the “catch in field traps, in words” value in the test on Helicoverpa spp. (field trapping trials) is “caught very few moths”. Also, in the test with Helicoverpa spp. (third direct comparison with PBE1), the “catch relative to the PBE1 catch” value is reported as “less than a quarter”.
